Key:
[1] = Quantum yields in the NIR, absolute method using an integration sphere; type: physicochemical; conditions: 298 K, excitation 370 nm
Protocol: (§1) Luminescence data were collected on samples that were placed into 2.4 mm i.d. quartz capillaries or quartz Suprasil cells. Emission and excitation spectra were measured on a Horiba-Jobin-Yvon Fluorolog 3 spectrofluorimeter equipped with either a visible photomultiplier tube (PMT) (220-800 nm, R928P; Hamamatsu), a NIR solid-state InGaAs detector cooled to 77 K (800-1600 nm, DSS-IGA020L; Jobin-Yvon), or NIR PMTs (950-1450 nm, H10330-45; 950-1650 nm, H10330-75; Hamamatsu). All spectra were corrected for instrumental functions.
Quantum yields in the NIR were determined with a Fluorolog 3 spectrofluorimeter according to an absolute method using an integration sphere (GMP SA). Each sample was measured several times under slightly different experimental conditions. Estimated experimental error for quantum yields determination is 10%.
(§2) Luminescence spectra were recorded for the Ln(III) metallacrown complexes (Ln(III)=Yb, Nd, Er) in the solid state and in solution (CH3OH/CD3OD) using excitation at 420 nm or 370 nm.

[2] = system: HeLa (Human Epithelial Ovarian Carcinoma) cells; experiment: NIR epifluorescence microscopy on HeLa cells; type: cell-based
Protocol: The preparation of the Yb(III) Metallacrowns and the description of the NIR Epifluorescence Microscopy are applicable for both experiments.
Yb^3+[12-MC-4]2[24-MC-8] was prepared as described above, and was dissolved in DMSO at an appropriate concentration, and was used as such or was incubated with beads for incorporation therein.
NIR epifluorescence microscopy was performed with an Axio Observer Z1 fluorescence inverted microscope (Zeiss, Le Pecq, France) equipped with an EMCCD Evolve 512 photometric camera (Roper Scientific). The EMCCD Evolve 512 photometric camera was linked to a computer driving the acquisition software Axiovision (Zeiss). The inverted microscope was equipped with Zeiss objectives (immersion Plan Apochromat 63x (Numerical Aperture (NA)=1.4), Plan Neofluar 40x (NA=0.75), Plan Apochromat 20x (NA=0.8)). A Zeiss HXP-120 light source (metal halide) was used as the excitation system, and was combined with a UV cube filter unit as follows: 377 nm band pass 50 nm filter for excitation, and long pass 805 nm filter for Yb(III) emission in the NIR range. […]
NIR Epifluorescence Microscopy was used to observe the treated cells after 24 hours of incubation with Yb^3+[12-MC-4]2[24-MC-8] and the untreated cells. […] As illustrated in both FIGS. 8E and 8F, the emission in the NIR range for the untreated HeLa cells was not detected. […]

[3] = Luminescence lifetimes under excitation at 355 nm; type: physicochemical; conditions: for τobs: 298 K, excitation 355 nm; for q (inner sphere hydration number): calculated from kCH3OH and kCD3OD
Protocol: as §1
Luminescence lifetimes were determined under excitation at 355 nm provided by a Nd:YAG laser (YG 980; Quantel), while the signal was detected in the NIR by the aforementioned PMT (H10330-75). The output signal from the detectors was then fed to a 500 MHz bandpass digital oscilloscope (TDS 754C; Tektronix) and then transferred to a PC for treatment with Origin 8®. Luminescence lifetimes are averages of at least three independent measurements.
as §2

[4] = Emission spectra and ligand energy levels (singlet, triplet, CT); type: physicochemical; conditions: for energy of the triplet state: determined on the 0-0 transition
Protocol: FIG. 3 is a graph depicting the corrected and normalized emission spectra of quinHA (10 mg/mL) under excitation at 290 in methanol at 77 K and Gd(III) MC (10 mg/mL) under excitation at 290 nm or 340 nm in methanol at 298 K and 77 K;
as §1
At 77 K, strong green luminescence centered at 510 nm with a weak band in the 325-460 nm range. The latter band disappeared upon enforcing a delay of 100 μs, so it can be assigned to a short-lived fluorescence while the green emission is phosphorescence. The energy of the triplet state of quinHA, determined on the 0-0 transition, can therefore be estimated as 21 000 cm−1 (476 nm).
The energy gap between ground and excited states for Gd(III) is very high and, therefore, it is impossible for the Gd(III) ion in the corresponding metallacrown complex to be sensitized with 300-400 nm excitation. It is believed that this feature can be used to determine the energy levels of the metallacrown complexes in the absence of energy transfer to the Ln(III) ion. The Gd(III) metallacrown complex was exposed to UV excitation into the ligand-based charge transfer band at 340 nm at room temperature, resulting in a weak broad-band emission with a maximum at 580-590 nm (FIG. 3). Lowering the temperature to 77 K led to a slight sharpening of the band and a shift of the maximum to 545-555 nm (FIG. 3). […] The position of the triplet state determined from the spectrum of Gd(III) metallacrown complex was the same as for quinHA within experimental error, 20 920 cm^−1 (478 nm). The position of the lowest excited singlet and the ligand-based charge transfer (CT) states were determined from the intersection of the absorption and emission (fluorescence) spectra of quinHA and Gd^3+[12-MC-4]2[24-MC-8], respectively, and found to be located at 29 850 cm^−1 (335 nm) and 21 560 cm^−1 ([…]). A proposed schematic diagram of the quinHA ligand's energy levels (singlet, triplet and CT) with respect to the energy levels of Yb(III), Nd(III) and Er(III) lanthanide ions and possible energy migration paths are shown in FIG. 4.

[5] = Absorption spectra in methanol; type: physicochemical; conditions: 298 K
Excerpt: FIG. 2 is a graph of the absorption spectra of Ln(III) MC complexes (2.04·10^−5 M, Ln(III)=Gd, Nd, Yb, Er) and quinaldichydroxamic acid (quinHA) (2.42·10^−4 M) in methanol at 298 K, where the absorption spectrum of quinHA was multiplied by 16 times;
Upon deprotonation and formation of the metallacrown framework, Ln(III)[12-MC-4]2[24-MC-8], a broad absorption appears in the near-visible region with an apparent maximum at 380 nm (ε≈5.5·10^4 M^−1 cm^−1) and cutoff at 470 nm. In FIG. 2, the results are shown for the Gd(III), Nd(III), Yb(III), and Er(III).

[6] = intersection of absorption and emission spectra
[7] = excitation 290 nm, 77 K, methanol

| Compound | QLn/%L (quantum yield) ([1]; CD3OD, 0.1 mg/mL) | QLn/%L (quantum yield) ([1]; CD3OD, 1 mg/mL) | QLn/%L (quantum yield) ([1]; CH3OH, 0.1 mg/mL) | QLn/%L (quantum yield) ([1]; CH3OH, 1 mg/mL) | QLn/%L (quantum yield) ([1]; Solid) | τobs ([3]; CD3OD, 0.1 mg/mL) | τobs ([3]; CD3OD, 1 mg/mL) | τobs ([3]; CH3OH, 0.1 mg/mL) | q (inner sphere hydration number) ([3]; CH3OH, 0.1 mg/mL) | τobs ([3]; CH3OH, 1 mg/mL) | q (inner sphere hydration number) ([3]; CH3OH, 1 mg/mL) | τobs ([3]; Solid) | energy of the triplet state [4] | other results |
| --- | --- | --- | --- | --- | --- | --- | --- | --- | --- | --- | --- | --- | --- | --- |
| YbZn16(quinHA)16(OTf)3 [Yb(III)MC] | 2.91(7) % | 2.88(2) % | 0.27(1) % | 0.25(1) % | 2.44(4) % | 144.6(5) μs | 150.7(2) μs | 15.14(4) μs | 0 | 14.88(1) μs | 0 | 47.8(4) μs |  | emission in the NIR range of treated cells ([2]; Experiment 1: 1 μM, 24 hours, λex=377 nm, long pass 805 nm, 500 ms exposure): unambiguously detected; Yb(III) emission in the NIR range of treated cells ([2]; both experiments (1 μM 24 h; 5 μM 11-12 h), short exposure times): unambiguously detected |
| GdZn16(quinHA)16(OTf)3 [Gd(III) metallacrown complex] |  |  |  |  |  |  |  |  |  |  |  |  | 20 920 cm^−1 | emission maximum ([4]; 77 K, time delay of 100 μs): 510 nm; emission maximum ([4]; excitation 340 nm, 77 K): 545-555 nm; emission maximum ([4]; excitation 340 nm, room temperature, weak broad-band emission): 580-590 nm; position of the ligand-based charge transfer (CT) state [4, 6]: 21 560 cm^−1 |
| ErZn16(quinHA)16(OTf)3 [Er(III)MC] |  | 3.60(6) · 10^−2% |  | 9.9(3) · 10^−4% | 4.2(1) · 10^−2% |  | 11.40(3) μs |  |  | 1.25(1) μs |  | 5.73(2) μs |  |  |
| O=C(NO)c1ccc2ccccc2n1 [quinHA, quinaldichydroxamic acid] |  |  |  |  |  |  |  |  |  |  |  |  | 21 000 cm^−1 | long wavelength absorption cutoff [5]: 340 nm; green luminescence (phosphorescence) centre [4, 7]: 510 nm; weak band (short-lived fluorescence) [4, 7]: 325-460 nm; emission upon UV excitation ([4]; excitation 290 nm, room temperature, methanol): did not display any detectable emission; position of the lowest excited singlet state [4, 6]: 29 850 cm^−1; melting point: 146 to 148 °C |
| NdZn16(quinHA)16(OTf)3 [Nd(III)MC] | 1.38(1) % | 1.35(1) % | 0.40(1) % | 0.38(1) % | 1.13(4) % | 4.00(1) μs | 4.11(3) μs | 1.16(1) μs | 0 | 1.16(1) μs | 0 | 1.79(2) μs |  |  |

— patent US10174057B2, “Metallacrown complexes and methods of making the same” (THE REGENTS OF THE UNIVERSITY OF MICHIGAN, priority 2013, dated 2019)
